Data as given in patent US9945845B2, “Methods of screening using amphibians” (priority 2009, dated 2018).
Where two headings read alike, the source gives them in different places.

Tests used:
Xenopus embryos = tested on: Xenopus embryos
In short: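 Stage 31 (37 hpf) Xenopus embryos, five per well, exposed to 20 µM compound in 1% DMSO at 23 °C for 4 days. Edema, lethality and other external phenotypes were scored daily by two investigators at stages 39, 41, 45 and 47.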

LEC [1] = test: LEC cell proliferation assay; assay type: cell-based, human; conditions: Homo sapiens, 48 h, 10 μM in 0.1% DMSO, 48 hours; read-out: LEC proliferation
In short: (§1)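 HUVEC and LEC in EBM with 20% FBS, hydrocortisone and dibutyryl-cAMP were treated with compound at 10 μM in 0.1% DMSO for 48 hours. Viable cells read by fluorescence, in five replicates.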

HUVEC [2] = test: HUVEC tube formation assay; assay type: cell-based, human; conditions: Homo sapiens, HUVEC, 1 μM in 0.1% DMSO
In short: (§2)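 HUVEC and LEC in EBM with 20% FBS, hydrocortisone and dibutyryl-cAMP, up to eleven passages, treated overnight at 37 °C with compound at 1 μM in 0.1% DMSO, then fixed in 4% paraformaldehyde. Read-out: total tube length (μm) per area over three hotspot images per well, triplicate wells.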

[3] = tested on: blood vessel development and/or lymphangiogenesis in Xenopus embryos; assay type: in vivo, Xenopus laevis
In short: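 Albino Xenopus embryos treated at 20 μM final (from 10-mM DMSO stocks) in screening medium, 7 per well, from stage 31 (37 hpf) to stage 35/36 (50 hpf) or 42 (80 hpf). Fixed in 4% paraformaldehyde and scored by whole-mount in situ hybridization: vasculogenesis and intersomitic vein angiogenesis at stage 35/36, lymph vessel development at stage 42.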

LEC [4] = test: cells; assay type: cell-based, human; conditions: Homo sapiens; for activity at 1 µM: 1 μM in 0.1% DMSO
In short: as §2

HUVEC [5] = test: HUVEC cell proliferation assay; assay type: cell-based, human; conditions: Homo sapiens, HUVEC, 48 h, 10 μM in 0.1% DMSO, 48 hours; read-out: HUVEC proliferation
In short: as §1

Oc1cc(-c2ccccc2)nc2nc(Cl)ccc12 [7-Chloro-4-hydroxy-2-phenyl-1,8-naphthyridine]
Lethality (NF) (Xenopus embryos; compounds causing edema, 20 μM, 1% DMSO, treatment from stage 31, scored to stage 47): 39 NF
Type of edema Pericordial (Xenopus embryos; embryonic stage): 39 embryonic stages according to Nieuwkoop and Faber (NF)
Lethality (Xenopus embryos; embryonic stage, — = no stage of lethality given): 39 embryonic stages according to Nieuwkoop and Faber (NF)
activity at 10 µM (LEC [1]): 42 to 48%
activity at 1 µM (HUVEC [2]; overnight, read-out: HUVEC tube formation): 50 to 85%
activity at 1 µM (HUVEC [2]; read-out: HUVEC tube formation (tube length)): 50 to 85%
blood vessel development phenotype (apj expression, in words) ([3]; 20 μM from stage 31, fixed at stage 35/36): interfered not only with ISV angiogenesis but also with VVN assembly
lymph vessel development phenotype (vegfr3 expression, in words) ([3]; 20 μM from stage 31, fixed at stage 42): stunted, disorganized lymphatic vessels arising from the ALS and ALH
ALH phenotype ([3]; anterior lymph heart, Xenopus embryos): dysplastic
ALS phenotype ([3]; anterior lymph sac, Xenopus embryos): stunted
ISV phenotype ([3]; intersomitic vessels, Xenopus embryos): stunted
PCV phenotype ([3]; posterior cardinal vein, Xenopus embryos): normal
PLV phenotype ([3]; posterior lymph vessels, Xenopus embryos): hypoplastic
VVN phenotype ([3]; vitelline vein network, Xenopus embryos): hypoplastic
activity at 1 µM (LEC [4]; overnight, read-out: LEC tube formation): 50 to 85%
activity at 1 µM (LEC [4]; read-out: LEC tube formation (tube length)): 50 to 85%
IC50 (LEC [4]; doses 0.2-2 μM, data not shown, read-out: IC50 of LEC tube formation): 1300 nM
activity at 10 µM (HUVEC [5]): 42 to 48%
